From ChEMBL document CHEMBL1152929, “Dapholdhamines A-D, alkaloids from Daphniphyllum oldhami” (J Nat Prod, 2009)
Calls of active or inactive are those of the source.

What was measured:
Assay type in all cases: functional, cell-based
HCT-116 = test: Cytotoxicity against human HCT116 cells
HL-60 = test: Cytotoxicity against human HL60 cells
HT-29 = test: Cytotoxicity against human HT-29 cells
SW480 = test: Cytotoxicity against human SW480 cells
KB = test: Cytotoxicity against human KB cells
K562 = test: Cytotoxicity against human K562 cells

Measured: Activity

COC(=O)c1c2ccoc3c-2c2c1C(=O)[C@]1(O)CC4(CC(C)=O)N(C[C@@H](CC3)[C@@]24C)C[C@H]1C
inactive: all assays above

COC(=O)c1c2ccoc3c-2c2c1C(=O)[C@]1(O)C[C@@]4(O)N(C[C@@H](CC3)[C@@]24C)C[C@H]1C
inactive: all assays above

CC(C)[C@H]1CC[C@@]2(C)[C@H]3C[C@@H]4[C@H]5CCC[C@@]4(O)[C@@]2(CCC(=O)O)[C@@H]1N5C3
inactive: all assays above

C[C@@H]1CN2C3[C@@H]4CC[C@@]35CCC[C@H]5[C@@]3(CCC(=O)O)[C@H]2[C@]1(O)CC[C@@]43C
inactive: all assays above
